According to patent US10941384B2, “Compositions and methods for promoting the generation of endocrine cells” (President and Fellows of Harvard College, priority 2013, dated 2021):

Assays:
[1] = tested on: INS, GCG and SST transcripts (H1-derived pancreatic progenitors); assay: qRT-PCR of endocrine hormone transcripts (INS, GCG, SST); type: cell-based, human; settings: 3 day treatment
From the text: FIGS. 3A-3D show PKC agonists block the formation of insulin-expressing cells. […] Wells were stained for insulin and cell number counted in representative portions of the well by the Cellomics high content screening system. Error bars represent s.d. Two-tailed T-test p<0.05. […] Endocrine induction is blocked by PKC agonist TPB and reversed by Bis1. […] P<0.001. The decrease in INS and GCG expression due to TPB treatment is reversed by BisI. […] P<0.001.
H1-derived pancreatic progenitors were treated for 3 days with DMSO or 3 μM BisI. qRT-PCR for INS, GCG and SST performed and shown as fold change over DMSO control.

[2] = tested on: HUES8 pancreatic progenitors; assay: Insulin cell number in HUES8 pancreatic progenitors in the presence of Noggin and Alk5 inhibitors; type: cell-based, human; settings: HUES8, 6 days, in the presence of Noggin and Alk5 inhibitor, versus DMSO
From the text: FIGS. 1A-1K show high-content screens to increase the number of NGN3-expressing and insulin-expressing cells. FIG. 1A is a schematic showing the stepwise differentiation from hESCs to pancreatic endocrine cells. DE, definitive endoderm; PP, pancreatic progenitor; EP, endocrine progenitor; EN, endocrine cells. Scheme of high-content screen beginning with a population of cells that have differentiated into pancreatic progenitors. FIGS. 1B and 1F are schematic diagrams showing the method of high-content screen, which begins with a population of cells that have differentiated into pancreatic progenitors. FIGS. 1C and 1G show the chemical structures of a PKCβ inhibotor and Bisindolylmaleimide I compound identified from the screen. FIGS. 1D and 1H show an efficacy curve of the hit compounds. […] The hit compounds effect on HUES 8-pancreatic progenitor population. After 14 d of differentiation, the HUES 8-pancreatic progenitor populations were treated with 10 M PKCβ inhibitor for four days and then stained with NGN 3 antibody (green). NGN3, neurogenin 3. Scale bar is 100 m. […] Percentage of insulin-positive cells with s.d. […] The percentage of NGN3^+ cells was analyzed with the Cellomics high content screening system (Thermo Scientific). […] Insulin cell number with was counted over the same area in different wells. […]

[3] = tested on: Human C-peptide / insulin-expressing cells (H1-derived pancreatic progenitors); assay: High-content screen 2 and dose response: insulin-expressing cells by immunofluorescence (Cellomics); type: cell-based; settings: for auto-fluorescence and toxicity in dose-curve measurements: at 6.75 M and 27 M
Protocol: hESC culture and differentiation. Protocol 2. Human ESCs were routinely cultured on hESC-certified matrigel (BD Biosciences) in mouse embryonic fibroblast conditioned hES media (MEF-CM). MEF-CM media was produced by conditioning hESC media for […] on a confluent layer of mouse embryonic fibroblasts and subsequently adding 20 ng/ml bFGF (Invitrogen). hES media was composed of DMEM/F12 (GIBCO) media supplemented with 20% KnockOut Serum Replacement (GIBCO), 2 mM Lglutamine (L-Glu, GIBCO), 1.1 mM 2-mercaptoethanol (GIBCO), 1 mM nonessential amino acids (GIBCO), 1× penicillin/strepto-mycin (P/S,GIBCO). Cells were passaged at the ratio of 1:6-1:20 every 4-7 days using TrypLE Express (Invitrogen).
To initiate differentiation the cells were dissociated using TrypLE Express to single cells and seeded at 150,000 cell/cm2 onto 1:30 dilution of growth factor reduced matrigel (BD Biosciences) in DMEM/F12 in MEF-CM media with 10 μM Y27632 (StemGent). Two days following seeding the differentiation was started. Cells were exposed to RPMI 1640 (Invitrogen) supplemented with 2% reagent grade BSA (Proliant) and 20 ng/ml human Wnt3a (R&D Systems)+100 ng/ml rhActivinA (R&D Systems)+8 ng/ml bFGF (Invitrogen) for the first day (stage 1.1). During day 2 and 3 the dayl media was used with the exception of Wnt3a (stage 1.2). During days 4-5 cells were treated with RPMI+2% BSA+50 ng/ml FGF7 (Peprotech) (stage 2). For days 6-9 cells were treated with DMEM-HG (Invitrogen)+0.1% Albumax BSA (Invitrogen)+1:200 ITS-X (Invitrogen)+50 ng/ml FGF7 (Peprotech)+2 μM RA (Sigma)+0.25 μM SANT-1 (Sigma)+20 ng/ml rhActivinA (R&D Systems)+100 ng/ml rhNoggin (R&D Systems) (stage 3). During days 10-12 cells were treated with DMEM-HG (Invitrogen)+0.1% Albumax BSA (Invitrogen)+1:200 ITS-X (Invitrogen)+100 ng/ml rhNoggin (R&D Systems)+0.25 μM SANT-1 (Sigma)+100 nM PDBu (EMD Biosciences) (stage 4). During days 13-15 cells were treated with DMEM-HG (Invitrogen)+0.1% Albumax BSA (Invitrogen)+1:200 ITS-X (Invitrogen)+100 ng/ml rhNoggin (R&D Systems)+1 μM Alk5 inhibitor (Axxora) (stage 5). PKC inhibitor Bisindolylmaleimide I (VWR) was added during stage 5.
High-content screen 2. The compound libraries used for this study: 400 compounds, including bioactive molecules, natural products, and 400 compounds that are known modulators of development or signaling pathways. For the chemical screen the day 8 cells were dispersed into single cells, using TrypLE, and replated at 150,000 cells/well of a 96 well plate in the presence of stage 3 media and 10 μM Y27632. Compounds were added to the wells on day 10 in stage 4 media, then again on days 12 and 14 in stage 5 media. Media was changed every other day suing the treatment. Cells were fixed using 4% paraformaldehyde (PFA, Sigma) on day 15 and stained using mouse antiglucagon and rabbit anti-c-peptide antibodies.
Screen 2: Immunostaining. Following 4% PFA fixation, cells were 3×5 min washed in PBS and blocked with 10% donkey serum (Jackson Immunoresearch) in PBS/0.3% Triton X. Primary antibodies were incubated overnight at 4 C. Secondary antibodies were incubated for 1 hr at room temperature. […]

SMILES: CN(C)CCCn1cc(C2=C(c3c[nH]c4ccccc34)C(=O)NC2=O)c2ccccc21 [BisI, Bisindolylmaleimide I]
- effect of TPB on INS and GCG expression in the presence of BisI ([1]; 3 M BisI + 5 M TPB): reversed
- increase of the numbers of insulin-expressing cells [2]: up to 7.5 fold
- insulin-expressing cells ([3]; 1 M BisI, 6 days, DMSO-treated controls 0.9 0.1%): up to 2.7 0.8%
- EC50 ([3]; Homo sapiens, H1, with Noggin and Alk5 inhibitor, FIG. 1H, read-out: EC50, total number of insulin-expressing cells): 848 nM
- auto-fluorescence and toxicity in dose-curve measurements [3]: Significant auto-fluorescence and toxicity
- auto-fluorescence and toxicity in dose-curve measurements ([3]; listed as Bisindolylmaleimide I): considerable auto-fluorescence and toxicity

SMILES: CC(C)[C@H]1C(=O)N[C@H](CO)Cc2cc(NC(=O)/C=C/C=C/c3ccc(C(F)(F)F)cc3)ccc2N1C [TPB, (2S,5S)-(E,E)-8-(5-(4-(trifluoromethyl)phenyl)-2,4-pentadienoylamino)benzolactam]
- expression of endocrine hormones insulin and glucagon ([1]; 5 M TPB): decrease
- effect on endocrine induction by Alk5 inhibitor (INS and GCG transcripts) ([1]; TPB combined with Alk5 inhibitor): sufficient to block the effect of Alk5 inhibitors on endocrine induction

SMILES: CCCC(=O)O[C@@H]1[C@@H](C)[C@@]2(O)[C@@H](C=C(CO)C[C@]3(O)C(=O)C(C)=C[C@@H]23)[C@@H]2C(C)(C)[C@]12OC(=O)CCC [PdBu, phorbol 12,13-dibutyrate]
- decline in endocrine differentiation, number of insulin+ cells ([3]; three-day treatment of H1-derived pancreatic progenitors (FIG. 3A: 1 M, 6 days)): 3.7 fold
